Values after ≈ are worked out from the molar mass of the structure shown. Read-outs that look alike come from different tables or passages of the source. No end group written: not given here.
Assays:
Aspergillus niger = tested on: Aspergillus niger
Experimental: (§1) iii. In Vitro Antifungal Assays • In vitro antifungal assays were performed in RPMI-1640 medium by broth micro dilution according to the Clinical and Laboratory Standards Institute (CLSI, formerly NCCL) methods M27-A3 and M-38-A2. […] Amphotericin B was used as positive control.

Candida albicans = tested on: Candida albicans
Experimental: as §1

Cryptococcus = tested on: Cryptococcus
Experimental: as §1

Fusarium oxysoprum = tested on: Fusarium oxysoprum
Experimental: as §1

Neurospora crassa = tested on: Neurospora crassa
Experimental: as §1

Ustilago maydis = tested on: Ustilago maydis
Experimental: as §1

Staphylococcus aureus = assay: microbe, parasite or virus in culture; type: cell-based
Pseudomonas aeruginosa = assay: microbe, parasite or virus in culture; type: cell-based
Escherichia coli = assay: microbe, parasite or virus in culture; type: cell-based
Salmonella enterica = assay: Inhibitory activity against bacteria (MIC 90); type: cell-based
Candida albicans cells [1] = assay: Membrane damage (propidium iodide fluorescence); type: cell-based; settings: peptides at their respective MICs, FIG. 6
Experimental: (§2) FIG. 6 depicts the membrane damage and reactive oxygen species (ROS) generation by the instant peptides (a) Untreated Control, (b) positive control (c) […] (known peptide sequence, not novel, not to be covered in the invention, was used only for comparison), (d)Seq IDNo. 2, (e) Seq IDNo. 3 and (f) Seq IDNo. 1, after incubation of peptides at their respective MICs with the Candida albicans cells. i. Membrane Damage and ROS Generation • The membrane damage and formation of ROS (Reactive oxygen species) are the antifungal mechanisms of a number of antimicrobial peptides. The membrane damage (middle panel) and ROS generation by the instant peptides (right panel) was monitored after incubation of peptides at their respective MICs with the Candida albicans cells as depicted in FIG. 6(a-f). A red fluorescence resulting from the membrane impermeable DNA binding dye propidium iodide was observed indicating the membrane damage in the cells due to action of peptides under study. A green fluorescence resulting from the oxidation of dye Dichloro-dihydro-fluorescein diacetate DCFH-DA (non-fluorescent molecule) into DCF 2',7'-dichlorofluorescein. (fluorescent molecule) was observed indicating the presence of ROS.

Candida albicans cells [2] = assay: ROS generation (DCFH-DA fluorescence); type: cell-based; settings: peptides at their respective MICs, FIG. 6
Experimental: as §2

Yeast-Hypha transition = Yeast-Hypha transition inhibition; type: cell-based; settings: at 4 μg/ml; Table 10 has no title
Experimental: ii. Yeast-Hypha Transition Inhibition. • The peptides were also tested for the Yeast-Hypha transition inhibition. In many human and plant pathogenic fungi direct correlation between the ability of fungus to switch between yeast (Y) and hypha (H) forms and pathogenicity have been reported (Jacobsen et al., 2012; Thompson et al., 2011; Nadal et al., 2008).

[3] = tested on: human and plant pathogens; assay: In vitro antifungal assays, all cultures tested; type: cell-based; settings: human and plant pathogenic fungi
Experimental: as §1

human erythrocyte = assay: Hemolytic activity, release of haemoglobin from erythrocyte suspensions in PBS; type: cell-based; settings: human erythrocytes
Experimental: The toxicity of the present cationic, alpha-helical antimicrobial peptides on blood cells to determine their suitability for systemic application was performed. Lysis of erythrocyte membranes was determined by monitoring the release of haemoglobin from human erythrocyte suspensions in PBS, in relation to complete (100%) haemolysis. Table 13(a) provides the % hemolytic activity observed when a series of concentrations of the present peptides were brought in contact with erythrocytes. There was absence of any hemolytic activity upto concentrations in the range of 130 to 200 μg/mL. However at concentration above 250 μg/mL, a minimal level of hemolysis was observed.

MTT assay, cytotoxicity = type: cell-based, human; settings: human, HeLa cells, concentration not given
Experimental: (§3) The cytolytic acivity of the present peptides was assessed by the MTT (3-(4,5-dimethylthiazol-2-yl)-2,5-diphenyltetrazolium bromide) assay against human cell lines (Hela cells). The cytotoxicity of on HeLa cells was assessed Approximately 10^4 cells per well were seeded in a 96-well plate and incubated for 12-16 h at 37° C.

Hela cells = assay: MTT assay, cytotoxicity; type: cell-based, human; settings: concentration not given
Experimental: as §3

[4] = tested on: Gram positive and Gram negative bacteria; assay: Inhibitory activity against bacteria, all cultures; type: cell-based

Row | Compound | Y-H transition inhibition (Yeast-Hypha transition) [%] | MIC 90 (Aspergillus niger) [mg/L] | MIC 90 (Candida albicans) [mg/L] | MIC 90 (Cryptococcus) [mg/L] | MIC 90 (Fusarium oxysoprum) [mg/L] | MIC 90 (Neurospora crassa) [mg/L] | MIC 90 (Ustilago maydis) [mg/L] | Antifungal potency in words, all the cultures tested [3] | MIC 90 (Staphylococcus aureus) [mg/L] | MIC 90 (Pseudomonas aeruginosa) [mg/L] | MIC 90 (Escherichia coli) [mg/L] | MIC 90 (Salmonella enterica) [mg/L] | Hemolytic activity (human erythrocyte; 256 μg/mL) [%] | Hemolytic activity (human erythrocyte; 512 μg/mL) | Hemolytic activity (human erythrocyte; 1024 μg/mL) [%] | viability (MTT assay, cytotoxicity) [%] | O.D. (Treated Cells) (Hela cells) | also measured
1 | C[C@@H]1[C@H](O)[C@@H](C)/C=C/C=C/C=C/C=C/C=C/C=C/C=C/[C@H](O[C@@H]2O[C@H](C)[C@@H](O)[C@H](N)[C@@H]2O)C[C@@H]2O[C@](O)(C[C@@H](O)C[C@@H](O)[C@H](O)CC[C@@H](O)C[C@@H](O)CC(=O)O[C@H]1C)C[C@H](O)[C@H]2C(=O)O [Ampho B, Amphotericin B, reference compound] | – | – | – | – | – | – | – | – | – | – | – | – | – | – | – | – | – | MIC 90 (Aspergillus niger; Aspergillus niger, RPMI-1640): 8 mg/L (≈ 8.66 µM); MIC 90 (Candida albicans; Candida albicans, RPMI-1640): 4 mg/L (≈ 4.33 µM); MIC 90 (Cryptococcus; Cryptococcus, RPMI-1640): 4 mg/L (≈ 4.33 µM); MIC 90 (Fusarium oxysoprum; Fusarium oxysoprum, RPMI-1640): 8 mg/L (≈ 8.66 µM); MIC 90 (Neurospora crassa; Neurospora crassa, RPMI-1640): 4 mg/L (≈ 4.33 µM); MIC 90 (Ustilago maydis; Ustilago maydis, RPMI-1640): 4 mg/L (≈ 4.33 µM)
2 | CC1(C)S[C@@H]2[C@H](NC(=O)[C@H](N)c3ccccc3)C(=O)N2[C@H]1C(=O)O [Ampicillin, ampicillin, reference compound] | – | – | – | – | – | – | – | – | – | – | – | – | – | – | – | – | – | MIC 90 (Staphylococcus aureus; Staphylococcus aureus, read-out: MIC 90): 2 mg/L (≈ 5.72 µM); MIC 90 (Pseudomonas aeruginosa; Pseudomonas aeruginosa, read-out: MIC 90): 2 mg/L (≈ 5.72 µM); MIC 90 (Escherichia coli; Escherichia coli, read-out: MIC 90): 4 mg/L (≈ 11.4 µM); MIC 90 (Salmonella enterica; read-out: MIC 90): 4 mg/L (≈ 11.4 µM)
3 | FKLRAKIKVRLRAKIKL [D4E1, reference compound] | 95.2 | 16 | 8 | 4 | 16 | 8 | 32 | most potent | 2 | 2 | 2 | – | – | – | – | – | – | Relative potency in membrane damage and ROS generation (Candida albicans cells [1]): more potent; ROS generation (Candida albicans cells [2]): higher
4 | FRLKFHLKF-NH2 [Seq Id No: 2] | – | 16 | 8 | 4 | 8 | 8 | 16 | – | 2 | 2 | 2 | 2 | 2 | 3.2%^ | 7 | 100 | 1.0185 | –
5 | VLKKLKKLC-NH2 [Seq Id No: 3] | 87.5 | 16 | 64 | 16 | 32 | 16 | 32 | moderate activity | 4 | 4 | 2 | 2 | 2 | 2.9% | 5.7 | 88 | 0.8325 | Potency towards Gram positive versus Gram negative bacteria [4]: higher potency towards Gram positive
